Results as given in patent US8802597B2, “Herbicidal pyrimidines” (E I du Pont de Nemours and Company, priority 2003, dated 2014).

Assays:
Assay type in all cases: in vivo
[1] = tested on: chickweed (Stellaria media); experiment: Test C postemergence; settings: Stellaria media, post-emergence
Outline: (§1)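 Visual injury ratings, 0 (no effect) to 100 (complete control), made 12 to 14 days after treatment by comparison with untreated controls. Greenhouse plants received test chemical in a surfactant-containing non-phytotoxic solvent, either preemergence on planted seeds or postemergence at the 1- to 4-leaf stage.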

[2] = tested on: common (oilseed) sunflower (Helianthus annuus); experiment: Test C pre/postemergence; settings: Preemergence, scale 0 to 100, 0 no effect, 100 complete control
Outline: as §1

corn (Zea mays) = experiment: Test C pre/postemergence; settings: for Plant response rating, Corn: Preemergence
Outline: as §1

`Nc1nc(C2CC2)nc(C(=O)O)c1Cl` [Compound 135, 6-amino-5-chloro-2-cyclopropyl-4-pyrimidinecarboxylic acid] gave a pest or weed control at 16 g/ha ([1]; 16 g ai/ha, read-out: Plant response rating (scale of 0 to 100), Chickweed) of 0%, a pest or weed control at 31 g/ha ([1]; 31 g ai/ha, read-out: Plant response rating (scale of 0 to 100), Chickweed) of 15% and a pest or weed control at 62 g/ha ([1]; 62 g ai/ha, read-out: Plant response rating (scale of 0 to 100), Chickweed) of 25%. The pest or weed control at 125 g/ha ([1]; 125 g ai/ha, scale 0 to 100 (0 no effect, 100 complete control), read-out: Chickweed plant response rating) was 85%, the “Plant response rating, Sunflower” value ([2]; 16 g ai/ha) was 65 and the “Plant response rating, Sunflower” value ([2]; 31 g ai/ha) was 70. For the same compound, the “Plant response rating, Sunflower” value ([2]; 62 g ai/ha) was 90, the “Plant response rating, Corn” value (corn (Zea mays); 16 g ai/ha, scale 0 to 100, 0 no effect, 100 complete control) was 5 and the “Plant response rating, Corn” value (corn (Zea mays); 31 g ai/ha, scale 0 to 100, 0 no effect, 100 complete control) was 30. For the same compound, the “Plant response rating, Corn” value (corn (Zea mays); 62 g ai/ha, scale 0 to 100, 0 no effect, 100 complete control) was 30, the “Plant response rating, Corn” value (corn (Zea mays); 125 g ai/ha, scale 0 to 100) was 70 and the Corn plant response rating (crop injury, 0 = no effect, 100 = complete kill) at 16 g/ha (corn (Zea mays); Zea mays, post-emergence, Postemergence, 16 g ai/ha, read-out: Plant response rating (scale of 0 to 100), Corn) was 5%. For the same compound, the Corn plant response rating (crop injury, 0 = no effect, 100 = complete kill) at 31 g/ha (corn (Zea mays); Zea mays, post-emergence, Postemergence, 31 g ai/ha, read-out: Plant response rating (scale of 0 to 100), Corn) was 10%, the Corn plant response rating (crop injury, 0 = no effect, 100 = complete kill) at 62 g/ha (corn (Zea mays); Zea mays, post-emergence, Postemergence, 62 g ai/ha, read-out: Plant response rating (scale of 0 to 100), Corn) was 20% and the Corn plant response rating (crop injury, 0 = no effect, 100 = complete kill) at 125 g/ha (corn (Zea mays); Zea mays, post-emergence, Postemergence, 125 g ai/ha, scale 0 to 100 (0 no effect, 100 complete control), read-out: Corn plant response rating) was 35%.
